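In this assay, cells in 96-well plates receive the compound at five concentrations for 48 hours. Endpoints are linearly interpolated between the surrounding concentrations. GI50 marks 50% less growth.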 The source made the active and inactive calls. Rule as the data show it: active = GI50 up to about 1.1 µM and inactive = higher.
Legend:
Assay in all cases: growth of human tumour cells (NCI), 48 h
HCT-116 = system: HCT-116
MDA-N = system: MDA-N
HOP-62 = system: HOP-62
HL-60 = system: HL-60
SK-MEL-2 = system: SK-MEL-2
BT-549 = system: BT-549
PC-3 = system: PC-3
KM12 = system: KM12
MDA-MB-435 = system: MDA-MB-435
M14 = system: M14
RPMI-8226 = system: RPMI-8226
K562 = system: K562
A498 = system: A498
DLD-1 = system: DLD-1
SK-MEL-5 = system: SK-MEL-5
NCI-H23 = system: NCI-H23
MOLT-4 = system: MOLT-4
UACC-257 = system: UACC-257
786-0 = system: 786-0
UACC-62 = system: UACC-62

Measured: GI50

COc1cc2c(cc1OC)[C@H]1CN3CCC[C@H]3C=C1c1ccc(OC)c(O)c1-2
active: HCT-116 0.452 nM | MDA-N 3.46 nM | HOP-62 < 0.1 nM | HL-60 0.487 nM | SK-MEL-2 0.505 nM | BT-549 19.5 nM | PC-3 3.59 nM | KM12 0.519 nM | MDA-MB-435 2.64 nM | M14 0.48 nM | RPMI-8226 0.577 nM | K562 0.512 nM | A498 < 0.1 nM | DLD-1 < 0.1 nM | SK-MEL-5 0.539 nM | NCI-H23 0.553 nM | MOLT-4 0.486 nM | UACC-257 0.681 nM | 786-0 0.728 nM | UACC-62 < 0.1 nM
